Assay results: patent publication US8476005B2, “Microfluidic embedded polymer NEMS force sensors” (California Institute of Technology, priority 2008, dated 2013)

Columns and labels:
cells = assay: Surface chemistry Petri dish experiments: cell adherence and spreading on treated surface; assay type: cell-based; conditions: surface treated with this agent only; polymer surface with gold pads
Experimental: FIGS. 3a-3d show results from surface chemistry Petri dish experiments. […] FIG. 3c-3d show results from complete surface chemistry process (SAM, Pluronics and fibronectin): cells are well spread on the gold and absent from the polymer A force sensor comprising a polymer surface with gold pads was used. The cells were to be attached to the pads and not to the polymer. At the beginning, both the pad and the polymer surfaces were hydrophobic, and water contact angle was about 80° on both. A self assembled monolayer was applied to the gold pads using thiol based chemistry. […] Monolayers were deposited from ethanol solutions […]. The monolayers left the gold surface hydrophilic, and water contact angle was about 25°. The polymer regions were coated with Pluronics […]). The surfaces were treated to Pluronics diluted in PBS (phosphate buffer solution), 0.02% to 1% by weight for 20-80 min. […] Pluronics left the surface hydrophilic. The gold regions were coated with Fibronectin. The surfaces were treated with fibronectin diluted in PBS, 5 ug/mL to 50 ug/mL for 20 min-4 hrs. […] FIGS. 3(c) and 3(d) show results from complete surface chemistry process (SAM, Pluronics and fibronectin), wherein cells were well spread on the gold and absent from the polymer. Thus, modifying surface chemistry allowed control of the cell adherence and/or spreading.

[1] = system: individual fibroblasts (NIG-3T3); assay: Single-cell force response to a perturbing agent, measured with polymer NEMS force sensor; assay type: cell-based
Experimental: FIGS. 2a-2i illustrate NEMS-enabled single-cell force measurements with high temporal and force resolution. FIGS. 2a-2b provide optical images showing a microfluidics encapsulated force sensor, and FIG. 2c provides an electron micrograph thereof. […] The force data was acquired with a force resolution of 200 pN and a time resolution of 100 ms—25× and 300×, respectively, better than prior state of the art. FIGS. 2f-2h provide plots that show force signatures of two molecular-mechanical processes: small force oscillations, roughly 400 pN peak-to-peak, with a frequency that is monotonically dependent on the force being exerted by the lamellipodium shown in FIG. 2f, with FIG. 2g illustrating the linearity of frequency dependence.
NEMS force sensors can be used in phenotypic screening. […] Cells can then be exposed to one or more potential reagents, such as a pharmaceutical reagent, such as a drug, introduced in a carefully controlled manner using the integrated microfluidics, and the effects of the reagent(s) on the cells, such as the force exerted by the cells, is monitored. […]
The reagent can cause the cell to change in its physiology, such as conformation and/or structure, or change its force response to the reagent. […] The lengthening of the wire can then be detected. […]

Compound | cell attachment and spreading on surface (cells) | large, stable, quantized force steps ([1]; cell's cytoskeleton perturbed with cytochalasin D and allowed to recover in growth media) [nN] | small force oscillations, peak-to-peak ([1]; lamellipodium perturbed with cytochalasin D and recovering in growth media, frequency monotonically dependent on force exerted)
fibronectin | cells were spread everywhere |  | 
C=C1[C@@H](C)[C@H]2[C@H](Cc3ccccc3)NC(=O)[C@]23[C@H](OC(C)=O)/C=C/[C@@](C)(O)C(=O)[C@@H](C)C/C=C/[C@H]3[C@@H]1O [cytochalasin D, Cytochalasin D] |  | ~1 | roughly 400 pN
